In patent US12180221B2, “Compounds and uses thereof” (JANSSEN PHARMACEUTICA NV, priority 2018, dated 2024):

Tests used:
human SCD1 = target: T1, human SCD1 (Homo sapiens, UniProt O00767); assay: Yeast growth assay, strain expressing human SCD1 as the sole desaturase (reduced growth as surrogate for SCD inhibition); assay type: cell-based; details: growth (OD600) after 40 h at 30° C.
T1 construct: expressed in transfected cells; host or cells: yeast strain with the OLE1 gene deleted, carrying a plasmid (grown in SD-Ura)
T1 sequence (O00767 1-359): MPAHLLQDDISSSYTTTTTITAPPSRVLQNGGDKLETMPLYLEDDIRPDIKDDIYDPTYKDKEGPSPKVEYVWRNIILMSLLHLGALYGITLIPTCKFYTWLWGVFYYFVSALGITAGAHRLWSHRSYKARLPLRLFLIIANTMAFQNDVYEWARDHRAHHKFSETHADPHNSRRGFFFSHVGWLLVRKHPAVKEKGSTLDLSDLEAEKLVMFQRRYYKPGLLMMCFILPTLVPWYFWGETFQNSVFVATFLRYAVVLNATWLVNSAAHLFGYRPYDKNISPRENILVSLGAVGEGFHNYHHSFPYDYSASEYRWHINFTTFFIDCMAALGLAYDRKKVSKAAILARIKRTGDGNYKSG

human SCD5 = target: T2, human SCD5 (Homo sapiens, UniProt Q86SK9); assay: Yeast growth assay, strain expressing human SCD5 as the sole desaturase (reduced growth as surrogate for SCD inhibition); assay type: cell-based; details: growth (OD600) after 40 h at 30° C.
T2 construct: expressed in transfected cells; host or cells: yeast strain with the OLE1 gene deleted, carrying a plasmid (grown in SD-Ura)
T2 sequence (Q86SK9 1-330): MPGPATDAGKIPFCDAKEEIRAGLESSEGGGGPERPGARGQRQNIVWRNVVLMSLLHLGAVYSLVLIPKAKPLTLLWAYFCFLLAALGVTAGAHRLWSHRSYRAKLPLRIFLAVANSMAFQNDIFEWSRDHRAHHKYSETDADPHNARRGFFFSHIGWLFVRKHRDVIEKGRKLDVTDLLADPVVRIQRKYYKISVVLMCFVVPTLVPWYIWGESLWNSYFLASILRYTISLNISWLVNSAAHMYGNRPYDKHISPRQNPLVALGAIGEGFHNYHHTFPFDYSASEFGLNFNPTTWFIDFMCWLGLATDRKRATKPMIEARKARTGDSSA

| Structure (SMILES) | IC50 (human SCD1) [µM] | IC50 (human SCD5) [µM] |
| --- | --- | --- |
| CN1N=C(C(=O)Nc2ncc(Cc3cccc(F)c3)s2)CCC1=O [Compound 221, N-(5-(3-fluorobenzyl)thiazol-2-yl)-1-methyl-6-oxo-1,4,5,6-tetrahydropyridazine-3-carboxamide] | > 45 | > 45 |
| CN1N=C(c2nc3cc(Cc4cccc(Cl)c4)cnc3[nH]2)CCC1=O [Compound 255] | > 45 | – |
| Cn1cc(C(=O)Nc2ccc(COc3cccc(Cl)c3)cn2)ccc1=O [Compound 263] | – | 0.17 |
| Cc1ccc(Cc2ccc(C(=O)Nc3ccc(=O)n(C)n3)nc2)cc1C [Compound 312] | 1.82 | 0.03 |
| CC1(C)CN(C(=O)c2cccc(Cc3ccc(F)cc3)n2)CCO1 [Compound 339] | > 45 | 17.7 |
| O=C(Nc1ccc(Cc2cccc(F)c2)cn1)c1cc[nH]c(=O)n1 [Compound 425] | > 45 | > 45 |
| O=C(Nc1ccc(Cc2cccc(F)c2)cn1)c1cnc2[nH]c(=O)oc2c1 [Compound 463] | > 45 | > 45 |
| Cn1cc(C(=O)Nc2ccc(Cc3ccc(F)c(F)c3)cn2)ncc1=O [Compound 673] | 3.1 | 0.36 |
